{"source": "patent US8148347B2", "about": "“Inhibition of interaction of PSD93 and PSDS95 with nNOS and NMDA receptors” (The Johns Hopkins University, priority 2000, dated 2012)", "key": {"[1]": {"system": "PSD-95/nNOS", "experiment": "yeast two-hybrid growth in −LTH medium, pGAD424-PSD-95 and pGBT9-nNOS", "format": "cell-based", "excerpt": "(§1) We utilized the yeast two-hybrid system to investigate the effects of halothane on protein interactions within the NMDA receptor signaling complex. The PDZ domain of nNOS or the C-terminus of NMDA receptor subunit 2B (NR2B) was fused in frame with the GAL4 DNA-binding domain in a yeast vector, pGBT9. The PDZ domain of PSD95 or PSD-93 was fused in frame with the GAL4 activation domain in another yeast vector, pGAD424. Both yeast vectors were co-transformed into the Y190 yeast strain, which was then grown in the absence or presence of halothane at clinically relevant concentrations. Protein-protein interactions were confirmed by both yeast growth on −Leu/−Trp/−His (−LTH) medium and lacz expression. To confirm the yeast two-hybrid results, the GST fusion protein binding assay was performed. The GST-fusion proteins, consisting of the second PDZ domain of PSD-95 or PSD-93, were expressed in bacterial BL21 cells and purified using glutathione-coupled agarose. After preincubation with or without different concentrations of halothane, GST-PSD-95 or GST-PSD-93 was incubated with membrane proteins from rat hippocampus at room temperature for 1 h. After extensive washing, the bound proteins were eluted by boiling in 1×SDS-PAGE sample buffer and detected by immunoblotting."}, "[2]": {"system": "PSD-95/NMDA receptor subunit 2B (NR2B)", "experiment": "yeast two-hybrid growth in −LTH medium, pGAD424-PSD-95 and pGBT9-2B", "format": "cell-based", "excerpt": "as §1"}, "[3]": {"system": "PSD-93/nNOS", "experiment": "yeast two-hybrid growth in −LTH medium, pGAD424-PSD-93 and pGBT9-nNOS", "format": "cell-based", "excerpt": "as §1"}, "[4]": {"system": "PSD-93/NMDA receptor subunit 2B (NR2B)", "experiment": "yeast two-hybrid growth in −LTH medium, pGAD424-PSD-93 and pGBT9-2B", "format": "cell-based", "excerpt": "as §1"}, "[5]": {"system": "Y190 yeast strain", "experiment": "yeast growth in −LT media (cytotoxicity control)", "format": "cell-based", "conditions": "high halothane concentration (3.6%)", "excerpt": "Under normal conditions, PSD-95 interacts with nNOS, resulting in good growth of the yeast carrying pGAD424-PSD-95 and pGBT9-nNOS in −LTH medium. […] Rather, the failure of yeast to grow in −LTH media in the presence of halothane must be due to disruption of protein-protein interactions by halothane. […] These findings confirm the yeast two-hybrid results.\nas §1, with “The GST-fusion proteins, consisting of the second PDZ domain of PSD-95 or PSD-93, were expressed in bacterial BL21 cells and purified using glutathione-coupled agarose. After preincubation with or without different concentrations of halothane, GST-PSD-95 or GST-PSD-93 was incubated with membrane proteins from rat hippocampus at room temperature for 1 h.” left out"}, "[6]": {"target": "T1, PSD-95/NMDA receptor (Rattus norvegicus, UniProt P31016)", "T1 construct": "The GST-fusion proteins, consisting of the second PDZ domain of PSD-95 or PSD-93; made in house; host or cells: bacterial BL21 cells (GST fusion); partner from rat hippocampal membranes", "T1 sequence (P31016 160-246 limits assumed)": "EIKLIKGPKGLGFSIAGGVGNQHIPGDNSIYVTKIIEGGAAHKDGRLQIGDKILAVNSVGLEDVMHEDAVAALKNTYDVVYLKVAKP", "experiment": "GST fusion protein binding assay, GST-PSD-95 and NMDA receptors", "conditions": "preincubation with different concentrations of halothane", "excerpt": "as §1"}, "[7]": {"target": "T2, PSD-95/nNOS (Rattus norvegicus, UniProt P31016)", "T2 construct": "The GST-fusion proteins, consisting of the second PDZ domain of PSD-95 or PSD-93; made in house; host or cells: bacterial BL21 cells (GST fusion); partner from rat hippocampal membranes", "T2 sequence (P31016 160-246 limits assumed)": "as above", "experiment": "GST fusion protein binding assay, GST-PSD-95 and nNOS", "conditions": "preincubation with different concentrations of halothane", "excerpt": "as §1"}, "[8]": {"system": "PSD-93/NMDA receptor", "experiment": "GST fusion protein binding assay, GST-PSD-93 and NMDA receptors", "parameters": "species or system rat", "conditions": "preincubation with different concentrations of halothane", "excerpt": "as §1, with “Protein-protein interactions were confirmed by both yeast growth on −Leu/−Trp/−His (−LTH) medium and lacz expression.” left out"}, "[9]": {"system": "PSD-93/nNOS", "experiment": "GST fusion protein binding assay, GST-PSD-93 and nNOS", "parameters": "species or system rat", "conditions": "preincubation with different concentrations of halothane", "excerpt": "as §1"}}, "note": "Entries after “also recorded” stand apart in the source; their conditions may differ."}
{"smiles": "FC(F)(F)C(Cl)Br", "note": "(centres unmarked) [halothane]", "values": [{"measurement": "growth of the yeast in −LTH media", "setting": "[1]; dose dependence", "result": "dose-dependently inhibited"}, {"measurement": "yeast growth in −LTH media", "setting": "[1]; high concentration (1.3%)", "result": "completely inhibited yeast growth"}, {"measurement": "growth of yeast clones in −LTH media", "setting": "[1]; low halothane concentrations (0.4%-0.7%)", "result": "slowed the growth"}, {"measurement": "growth of the yeast in −LTH media", "setting": "[2]", "result": "A similar phenomenon was observed"}, {"measurement": "growth of the yeast in −LTH media", "setting": "[3]", "result": "inhibited by halothane in a similar way"}, {"measurement": "growth of the yeast in −LTH media", "setting": "[4]", "result": "inhibited by halothane in a similar way"}, {"measurement": "yeast growth in −LT media", "setting": "[5]", "result": "growth did not differ from yeast grown without halothane"}, {"measurement": "binding of GST-fusion PSD-95 to rat brain NMDA receptors", "setting": "[6]", "result": "blocks; also recorded: dose-dependently inhibited"}, {"measurement": "binding of GST-fusion PSD-95 to nNOS", "setting": "[7]", "result": "blocks; also recorded: dose-dependently inhibited"}, {"measurement": "binding of GST-fusion PSD-93 to rat brain NMDA receptors", "setting": "[8]", "result": "blocks; also recorded: dose-dependently inhibited"}, {"measurement": "binding of GST-fusion PSD-93 to nNOS", "setting": "[9]", "result": "blocks; also recorded: dose-dependently inhibited"}]}
